Laboratory results taken from US9381200B2, “Nitrogen containing compounds” (WOCKHARDT LIMITED, priority 2011, dated 2016).
≈ marks a conversion by molar mass, not a printed value. Read-outs that look alike come from different tables or passages of the source.

What was measured:
Assay type in all cases: cell-based
[1] = system: E. coli 7 MP; assay: Antibacterial activity (MIC), agar dilution per CLSI; settings: Escherichia coli, Table 3, E. coli 7 MP expressing ESBL, read-out: MIC
Procedure, shortened: (§1)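 Agar dilution MIC per CLSI: overnight cultures diluted and inoculated onto agar containing doubling dilutions of compound. Growth/no growth read after 16-20 h at 35±2° C in ambient air. Strains express ESBL.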

[2] = system: E. coli NCTC 13351; assay: as above; settings: Escherichia coli, NCTC13351, Table 3, E. coli NCTC 13351 expressing ESBL, 16-20 hours, 35±2° C., read-out: MIC
Procedure, shortened: as §1

[3] = system: E. coli M 50; assay: as above; settings: Escherichia coli, read-out: MIC
Procedure, shortened: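 MIC values (mcg/ml) are the lowest compound level on agar showing no growth. Each strain, taken from an overnight culture and diluted, is inoculated onto media carrying doubling dilutions of compound, then incubated for 16-20 hours at 35±2° C. without added CO2.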

[4] = system: E. Coli B 89; assay: Antibacterial activity (MIC) against MDR Gram negative strains; settings: Escherichia coli; Table 4; E. Coli B 89, Class C ESBL, MDR; read-out: MIC
Protocol: (§2) The biological activity of representative compounds according to the invention against various bacterial strains was investigated. In a typical study, overnight grown bacterial cultures were diluted appropriately and inoculated on the agar media containing doubling dilutions of the test compounds. Observation for growth or no growth was performed after 16-20 hours of incubation at 35±2° C. in ambient air. The overall procedure was performed as per Clinical and Laboratory Standards Institute (CLSI) recommendations (Clinical and Laboratory Standards Institute (CLSI), Performance Standards for Antimicrobial Susceptibility Testing, 20th Informational Supplement, M 100-S20, Volume 30, No. 1, 2010).
(§3) The activities are expressed as MICs (mcg/ml).

[5] = system: E. Coli H 484; assay: as above; settings: Escherichia coli; Table 4; E. Coli H 484, Class C ESBL, MDR; read-out: MIC
Protocol: as §2, §3

[6] = system: E. Coli M 3; assay: as above; settings: Escherichia coli; Table 5; E. Coli M 3, Class B ESBL, MDR; read-out: MIC
Protocol: as §2, §3

[7] = system: E. Coli M 44; assay: as above; settings: Escherichia coli; Table 5; E. Coli M 44, Class B ESBL, MDR; read-out: MIC
Protocol: as §2, §3

[8] = system: E. Coli W 13351; assay: as above; settings: Escherichia coli; Table 4; E. Coli W 13351, Class A ESBL, MDR; read-out: MIC
Protocol: as §2, §3

[9] = system: E. Coli W 13352; assay: as above; settings: Escherichia coli; Table 4; E. Coli W 13352, Class A ESBL, MDR; read-out: MIC
Protocol: as §2, §3

[10] = system: E. Coli W 13353; assay: as above; settings: Escherichia coli; Table 4; E. Coli W 13353, Class A ESBL, MDR; read-out: MIC
Protocol: as §2, §3

[11] = system: K penumoniae H 521; assay: as above; settings: Table 4; K penumoniae H 521, KPC ESBL, MDR; read-out: MIC
Protocol: as §2, §3

[12] = system: K penumoniae H 523; assay: as above; settings: Table 4; K penumoniae H 523, KPC ESBL, MDR; read-out: MIC
Protocol: as §2, §3

[13] = system: K penumoniae H 525; assay: as above; settings: Table 4; K penumoniae H 525, KPC ESBL, MDR; read-out: MIC
Protocol: as §2, §3

[14] = system: K. penumoniae S 48; assay: as above; settings: Table 5; K. penumoniae S 48, Class B ESBL, MDR; read-out: MIC
Protocol: as §2, §3

[15] = system: P. aeruginosa ATCC 27853; assay: as above; settings: Pseudomonas aeruginosa, ATCC27853; Table 5; P. aeruginosa ATCC 27853; read-out: MIC
Protocol: as §2, §3

[16] = system: P. aeruginosa Ps 21; assay: as above; settings: Pseudomonas aeruginosa, PS21; Table 5; P. aeruginosa Ps 21; read-out: MIC
Protocol: as §2, §3

[17] = system: P. aeruginosa Ps 32; assay: as above; settings: Pseudomonas aeruginosa, PS32; Table 5; P. aeruginosa Ps 32; read-out: MIC
Protocol: as §2, §3

[18] = M50, Table 3, E. coli M 50 expressing ESBL, agar dilution
[19] = M50, Table 4, E. Coli M 50, Class C ESBL, MDR

SMILES | MIC [1] [mg/L] | MIC [2] [mg/L] | MIC [3, 18] [mg/L] | MIC [3, 19] [mg/L] | MIC [4] [mg/L] | MIC [5] [mg/L] | MIC [6] [mg/L] | MIC [7] [mg/L] | MIC [8] [mg/L] | MIC [9] [mg/L] | MIC [10] [mg/L] | MIC [11] [mg/L] | MIC [12] [mg/L] | MIC [13] [mg/L] | MIC [14] [mg/L] | MIC [15] [mg/L] | MIC [16] [mg/L] | MIC [17] [mg/L]
NCC(=O)NNC(=O)[C@H]1CC[C@@H]2CN1C(=O)N2OS(=O)(=O)O (relative stereo) [Example 7, trans-sulfuric acid mono-[2-(N′-(amino-acetyl)-hydrazinocarbonyl)-7-oxo-1,6-diaza-bicyclo[3.2.1]oct-6-yl]ester] | 4 (≈ 11.9 µM) | 2 (≈ 5.93 µM) | 2 (≈ 5.93 µM) | 2 (≈ 5.93 µM) | 4 (≈ 11.9 µM) | 4 (≈ 11.9 µM) | 4 (≈ 11.9 µM) | 2 (≈ 5.93 µM) | 2 (≈ 5.93 µM) | 1 (≈ 2.96 µM) | 0.5 (≈ 1.48 µM) | 2 (≈ 5.93 µM) | 1 (≈ 2.96 µM) | 2 (≈ 5.93 µM) | 4 (≈ 11.9 µM) | > 32 | > 32 | > 32
NCCC(=O)NNC(=O)[C@H]1CC[C@@H]2CN1C(=O)N2OS(=O)(=O)O (relative stereo) [Example 8, trans-sulfuric acid mono-[2-(N′-(3-amino-propioyl)-hydrazinocarbonyl)-7-oxo-1,6-diaza-bicyclo[3.2.1]oct-6-yl]ester] | 2 (≈ 5.69 µM) | 1 (≈ 2.85 µM) | 1 (≈ 2.85 µM) | 1 (≈ 2.85 µM) | 1 (≈ 2.85 µM) | 2 (≈ 5.69 µM) | 4 (≈ 11.4 µM) | 0.5 (≈ 1.42 µM) | 1 (≈ 2.85 µM) | 1 (≈ 2.85 µM) | 1 (≈ 2.85 µM) | 1 (≈ 2.85 µM) | 0.5 (≈ 1.42 µM) | 1 (≈ 2.85 µM) | 1 (≈ 2.85 µM) | 8 (≈ 22.8 µM) | 16 (≈ 45.5 µM) | 8 (≈ 22.8 µM)
NCCCC(=O)NNC(=O)[C@H]1CC[C@@H]2CN1C(=O)N2OS(=O)(=O)O (relative stereo) [Example 9, trans-sulfuric acid mono-[2-(N′-(4-amino-butanoyl)-hydrazinocarbonyl)-7-oxo-1,6-diaza-bicyclo[3.2.1]oct-6-yl]ester] | 4 (≈ 10.9 µM) | 1 (≈ 2.74 µM) | 2 (≈ 5.47 µM) | 1 (≈ 2.74 µM) | 1 (≈ 2.74 µM) | 2 (≈ 5.47 µM) | 2 (≈ 5.47 µM) | 0.5 (≈ 1.37 µM) | 1 (≈ 2.74 µM) | 1 (≈ 2.74 µM) | 1 (≈ 2.74 µM) | 1 (≈ 2.74 µM) | 0.5 (≈ 1.37 µM) | 0.5 (≈ 1.37 µM) | 1 (≈ 2.74 µM) | 8 (≈ 21.9 µM) | 8 (≈ 21.9 µM) | 16 (≈ 43.8 µM)
O=C(NNC(=O)[C@H]1CC[C@@H]2CN1C(=O)N2OS(=O)(=O)O)C1CCNCC1 (relative stereo) [Example 13, trans-sulfuric acid mono-[2-(N′-(piperidin-4-carbonyl)-hydrazinocarbonyl)-7-oxo-1,6-diaza-bicyclo[3.2.1]oct-6-yl]ester] | 2 (≈ 5.11 µM) | 1 (≈ 2.55 µM) | 1 (≈ 2.55 µM) | 1 (≈ 2.55 µM) | 1 (≈ 2.55 µM) | 4 (≈ 10.2 µM) | 1 (≈ 2.55 µM) | 1 (≈ 2.55 µM) | 1 (≈ 2.55 µM) | 2 (≈ 5.11 µM) | 1 (≈ 2.55 µM) | 1 (≈ 2.55 µM) | 0.5 (≈ 1.28 µM) | 1 (≈ 2.55 µM) | 1 (≈ 2.55 µM) | 32 (≈ 81.8 µM) | 32 (≈ 81.8 µM) | 16 (≈ 40.9 µM)
O=C(NNC(=O)[C@@H]1CC[C@@H]2CN1C(=O)N2OS(=O)(=O)O)[C@@H]1CCCN1 [Example 1, trans-sulfuric acid mono-[2-(N′—[(S)-pyrrolidin-2-carbonyl]-hydrazinocarbonyl)-7-oxo-1,6-diaza-bicyclo[3.2.1]oct-6-yl]ester] | 0.25 (≈ 0.662 µM) | 0.025 (≈ 0.0662 µM) | 0.25 (≈ 0.662 µM) | 0.5 (≈ 1.32 µM) | 0.5 (≈ 1.32 µM) | 2 (≈ 5.3 µM) | 1 (≈ 2.65 µM) | 0.25 (≈ 0.662 µM) | 0.5 (≈ 1.32 µM) | 0.5 (≈ 1.32 µM) | 0.25 (≈ 0.662 µM) | 0.5 (≈ 1.32 µM) | 0.5 (≈ 1.32 µM) | 0.5 (≈ 1.32 µM) | 2 (≈ 5.3 µM) | 16 (≈ 42.4 µM) | 16 (≈ 42.4 µM) | 32 (≈ 84.8 µM)
O=C(NNC(=O)[C@@H]1CC[C@@H]2CN1C(=O)N2OC(F)(F)C(=O)O)[C@@H]1CCCNC1 [Example 5, trans-difluoro-{7-oxo-2-[N′—((R)-piperidin-3-carbonyl)-hydrazinocarbonyl]-1,6-diaza-bicyclo[3.2.1]-oct-6-yloxy}-acetic acid] | 0.5 (≈ 1.23 µM) | 0.25 (≈ 0.617 µM) | 0.25 (≈ 0.617 µM) | 1 (≈ 2.47 µM) | 0.5 (≈ 1.23 µM) | 1 (≈ 2.47 µM) | 1 (≈ 2.47 µM) | 0.5 (≈ 1.23 µM) | 0.25 (≈ 0.617 µM) | 0.5 (≈ 1.23 µM) | 0.5 (≈ 1.23 µM) | 1 (≈ 2.47 µM) | 1 (≈ 2.47 µM) | 2 (≈ 4.93 µM) | 2 (≈ 4.93 µM) | > 32 | > 32 | > 32

Now from value to compound:

MIC [1] [mg/L] | MIC [2] [mg/L] | MIC [3, 18] [mg/L] | MIC [3, 19] [mg/L] | MIC [4] [mg/L] | MIC [5] [mg/L] | MIC [6] [mg/L] | MIC [7] [mg/L] | MIC [8] [mg/L] | MIC [9] [mg/L] | MIC [10] [mg/L] | MIC [11] [mg/L] | MIC [12] [mg/L] | MIC [13] [mg/L] | MIC [14] [mg/L] | MIC [15] [mg/L] | MIC [16] [mg/L] | MIC [17] [mg/L] | SMILES
2 (≈ 5.11 µM) | 0.5 (≈ 1.28 µM) | 0.25 (≈ 0.639 µM) | 0.5 (≈ 1.28 µM) | 0.5 (≈ 1.28 µM) | 2 (≈ 5.11 µM) | 0.5 (≈ 1.28 µM) | 0.25 (≈ 0.639 µM) | 0.5 (≈ 1.28 µM) | 0.5 (≈ 1.28 µM) | 0.5 (≈ 1.28 µM) | 0.5 (≈ 1.28 µM) | 0.25 (≈ 0.639 µM) | 0.25 (≈ 0.639 µM) | 4 (≈ 10.2 µM) | 8 (≈ 20.4 µM) | 16 (≈ 40.9 µM) | 8 (≈ 20.4 µM) | O=C(NNC(=O)[C@H]1CC[C@@H]2CN1C(=O)N2OS(=O)(=O)O)C1CCCNC1 (mixture of isomers) [Example 14, trans-sulfuric acid mono-[2-(N′—((RS)-piperidin-3-carbonyl)-hydrazinocarbonyl)-7-oxo-1,6-diaza-bicyclo[3.2.1]oct-6-yl]ester]
8 (≈ 20.4 µM) | 4 (≈ 10.2 µM) | 2 (≈ 5.1 µM) | 2 (≈ 5.1 µM) | 2 (≈ 5.1 µM) | 8 (≈ 20.4 µM) | 1 (≈ 2.55 µM) | 4 (≈ 10.2 µM) | 4 (≈ 10.2 µM) | 4 (≈ 10.2 µM) | 2 (≈ 5.1 µM) | 2 (≈ 5.1 µM) | 2 (≈ 5.1 µM) | 2 (≈ 5.1 µM) | 4 (≈ 10.2 µM) | > 32 | > 32 | > 32 | O=C(NNC(=O)[C@H]1CC[C@@H]2CN1C(=O)N2OS(=O)(=O)O)C1CNCCN1 (mixture of isomers) [Example 38, trans-sulfuric acid mono-[2-(N′—((RS)-piperazin-2-carbonyl)-hydrazinocarbonyl)-7-oxo-1,6-diaza-bicyclo[3.2.1]oct-6-yl]ester]
2 (≈ 4.92 µM) | 1 (≈ 2.46 µM) | 1 (≈ 2.46 µM) | 2 (≈ 4.92 µM) | 1 (≈ 2.46 µM) | 4 (≈ 9.84 µM) | 1 (≈ 2.46 µM) | 1 (≈ 2.46 µM) | 2 (≈ 4.92 µM) | 2 (≈ 4.92 µM) | 2 (≈ 4.92 µM) | 1 (≈ 2.46 µM) | 1 (≈ 2.46 µM) | 1 (≈ 2.46 µM) | 4 (≈ 9.84 µM) | 32 (≈ 78.7 µM) | > 32 | > 32 | O=C(CN1CCNCC1)NNC(=O)[C@H]1CC[C@@H]2CN1C(=O)N2OS(=O)(=O)O (relative stereo) [Example 19, trans-sulfuric acid mono-[2-(N′-(piperazin-4-yl-acetyl)-hydrazinocarbonyl)-7-oxo-1,6-diaza-bicyclo[3.2.1]oct-6-yl]ester]
